Laboratory results from patent US20070213402A1, “Compounds which interact with the thyroid hormone receptor for the treatment of fibrotic disease” (priority 1998, published 2007).

Assays:
collagenase I promoter [1] = experiment: Experiment 1: collagenase I promoter (-73/+63)-luciferase in CV1 cells transfected with GR1 (glucocorticoid receptor); assay type: cell-based, African Green Monkey; conditions: for % control (GR1): Blank = 100
From the text: (§1) Two plasmid constructs were introduced by standard calcium phosphate precipitation of DNA followed by glycerol shock (Ausubel F M, Brent R, Kingston D D, Moore J G et al Current protocols in molecular biology 1994 Greene Publishing Associates/Wiley-Interscience, New York, N.Y.) using a transformed African Green Monkey kidney cell line (CV1) (Schneikert J, Peterziel H, Defossez P-A, Klocker H, de Launoit Y and Cato A C B Androgen receptor-Ets protein interaction is a novel mechanism for steroid hormone-mediated down-modulation of matrix metalloproteinase expression, Journal of Biological Chemistry. Vol 271(39) (pp 23907-23913), 1996).
(§2) Accordingly, the following two plasmids were included into CV1 cells described above — • (a) Either of GR1 or pSG5ARF containing glucocorticoid or androgen receptor (AR) respectively, both at 2 ug per 5×10^5 cells, driven by the Rous sarcoma virus promoter, and • (b) a plasmid containing the −73/+63 portion of the collagenase I promoter linked to luciferase gene at 8 ug per 5×10^5 cells.
(§3) CPII was compound II above, clobuzarit.

NFκB = experiment: Experiment 3: NFκB-driven 3-EnhTK-Luc reporter in CV1 cells with GR1; assay type: cell-based, African Green Monkey
From the text: as §1
This experiment was intended to show the effect of compounds I on a mediator of the immune response, nuclear factor—κB (NF-κB).
The following two plasmids were included into CV1 cells described above— • (a) GR1 as described above at 2 ug per 5×10^5 cells, and • (b) a plasmid designated 3-EnhTK-Luc (at 0.5 ug per 5×10^5 cells) which contains a transcription site that is activated by NFκB.
The blank represented the inclusion of these two plasmids alone; the relatively high value was caused by (i) the high level of serum in the culture, and (ii) the associated stress that the cells underwent during the […]—both of which upregulate NFκB. There was also a related relatively low activation of TNF (at 4 ng/ml) above a serum containing blank in the experiment. TNF was tumour necrosis factor alpha.

collagenase I promoter [2] = experiment: Experiment 1: collagenase I promoter (-73/+63)-luciferase in CV1 cells transfected with pSG5ARF (androgen receptor); assay type: cell-based, African Green Monkey; conditions: for % control (AR): Blank = 100
From the text: as §1, §2, §3

collagenase I promoter [3] = experiment: Experiment 1: collagenase I promoter (-73/+63)-luciferase in CV1 cells, no receptor plasmid (Empty); assay type: cell-based, African Green Monkey; conditions: no receptor, substance added alone
From the text: as §1, §2, §3

[4] = system: collagenase (MMP-1) promoter; experiment: Experiment 4.1: collagenase (MMP-1) promoter (-517/+63)-luciferase in MCF-7 cells, endogenous thyroid hormone receptors; assay type: cell-based, human; conditions: MCF-7, endogenous thyroid hormone receptors, substance added alone
Description: (§4) These experiments were intended to identify the receptor through which compounds I might be acting to block collagenase promoter activity.
(§5) Transfection procedure hereinbefore described with CV1 cells was repeated using MCF-7 mammary breast cancer cells derived from pleural effusion from a breast cancer patient. Additionally, each experiment included transfection of a plasmid (at 8 ug per 5×10^5 cells) containing the −517/+63 section of the collagenase (MMP-1) promoter linked to the luciferase gene. TPA was used as above to stimulate activity of the collagenase promoter resulting in luciferase production. Compound II or 3,3,5-triiodo-L-thyronine (T3) was included (both at 10^−8M), the latter being a known ligand for the thyroid hormone receptor.
Experiment 4.1. As MCF-7 cells express endogenous thyroid hormone receptors, only the collagenase promoter plasmid (at 8 ug per 5×10^5 cells) was transfected into the MCF-7 cells.

[5] = system: collagenase (MMP-1) promoter; experiment: Experiment 4.2: collagenase (MMP-1) promoter-luciferase in MCF-7 cells with antisense construct for the thyroid receptor; assay type: cell-based, human; conditions: MCF-7 + thyroid receptor antisense, substance added alone
Description: as §4, §5
Experiment 4.2. The procedure of Experiment 4.1 was repeated except that a second plasmid, containing 662 bp antisense construct for the thyroid receptor (at 8 ug per 5×10^5 cells) was additionally transfected.

[6] = system: collagenase (MMP-1) promoter; experiment: Experiment 4.3: collagenase (MMP-1) promoter-luciferase in MCF-7 cells with transfected chick thyroid hormone receptor; assay type: cell-based, human; conditions: MCF-7 + chick thyroid hormone receptor, substance added alone
Description: as §4, §5

[7] = substance added with TPA 75 ng/ml, Dex 10^-7M
[8] = substance added with TPA 75 ng/ml, DHT 10^-7M
[9] = substance added alone, TPA 75 ng/ml

`C[C@@H]1C[C@H]2[C@@H]3CCC4=CC(=O)C=C[C@]4(C)[C@@]3(F)[C@@H](O)C[C@]2(C)[C@@]1(O)C(=O)CO` [Dex, dexamethazone, reference compound] was tested, and the “Raw counts (GR1)” value (collagenase I promoter [1]; [7]) was 10981 counts, the “% control (GR1)” value (collagenase I promoter [1]; [7]) was 86% and the “collagenase I activation, in words (GR1)” value (collagenase I promoter [1]; TPA-stimulated, glucocorticoid receptor) was “able to down regulate this activation”. The Raw Counts (NFκB; substance added with TNF 4 ng/ml) was 18525 counts, the “% Control” value (NFκB; substance added with TNF 4 ng/ml, Blank = 100) was 31% and the “inhibitory effect on NFκB transcription, in words” value (NFκB; with TNF) was “marked effect”.

For `C[C@]12CCC(=O)C[C@@H]1CC[C@@H]1[C@@H]2CC[C@]2(C)[C@@H](O)CC[C@@H]12` [DHT, dihydroxytestosterone, reference compound], the “Raw counts (AR)” value (collagenase I promoter [2]; [8]) was 3711 counts, the “% control (AR)” value (collagenase I promoter [2]; [8]) was 139% and the “collagenase I activation, in words (AR)” value (collagenase I promoter [2]; TPA-stimulated, androgen receptor) was “able to down regulate this activation”.

In the case of `CCCCCCCCCCCCCC(=O)O[C@@H]1[C@@H](C)[C@@]2(O)[C@@H](C=C(CO)C[C@]3(O)C(=O)C(C)=C[C@@H]23)[C@@H]2C(C)(C)[C@]12OC(C)=O` [TPA, 12-O—tetradecanoylphorbol-13-acetate, reference compound], the “% control (GR1)” value (collagenase I promoter [1]; substance added alone) is reported as 448%, the “Raw counts (GR1)” value (collagenase I promoter [1]; [9]) is reported as 57519 counts and the “Raw counts (Empty)” value (collagenase I promoter [3]; luciferase, TPA 75 ng/ml) is reported as 5407 counts. The “% control (Empty)” value (collagenase I promoter [3]; Blank = 100) was 225%, the “% Control” value ([4]; Blank = 100) was 1174.3% and the “Raw Counts” value ([4]; CPII 10^-8M) was 147665 counts. For the same compound, the “% Control” value ([5]; Blank = 100) was 341.2%, the “Raw Counts” value ([5]; CPII 10^-8M) was 4975 counts and the “% control (AR)” value (collagenase I promoter [2]; substance added alone) was 436%. The “Raw counts (AR)” value (collagenase I promoter [2]; [9]) was 11639 counts, the “% Control” value ([6]; Blank = 100) was 528% and the “Raw Counts” value ([6]; CPII 10^-8M) was 11528 counts.
